# Measurements taken from US8258100B2, “Ligand/lytic peptide methods of use” (Board of Supervisors of Louisiana State University and …, priority 1997, dated 2012).
# How the values were obtained:
# [1] = test system: bovine granulosa cells; assay: in vitro lysis of bovine granulosa cells; format: cell-based; conditions: hecate alone, versus small luteal cells
# Description: We also studied in vitro lysis of bovine granulosa cells with GnRH-hecate conjugate and with hecate-bLH conjugate. Granulosa cells were isolated from bovine pre-ovulatory follicles. (Granulosa cells are hormonally active cells with numerous LH receptors.) Our experiments with granulosa cells were otherwise generally similar to those described above for Examples 24-31.
# [2] = test system: sexually mature female rats; assay: sexually mature female rats, double intravenous treatment, necropsy two weeks later; format: in vivo, rat; conditions: IV twice 24 hours apart, two weeks after, GnRH/hecate 2 x 0.5 mg, GnRH 162 μg then 15 minutes later hecate 337 μg
# Description: Eighteen sexually mature, mixed breed, female rats were randomly assigned to one of six groups containing three rats each. Each group of rats received a double treatment intravenously, as described below. Two weeks after the treatment, the rats were sacrificed and necropsied. The reproductive and endocrine organs were sectioned, weighed, and examined histologically.
# [3] = test system: DU145 cells; assay: in vitro lysis of human prostate cancer cells, Trypan blue exclusion; format: cell-based; conditions: 22 hours; GnRH-hecate 50 μM; free hecate 30 μM; hecate-bLH 90 or 60 μM
# Description: LNCaP FGC and DU145 human prostate cancer cell lines were purchased from the American Type Culture Collection (ATCC, Rockville Md.), ATCC accession numbers CRL 1740 and HTB-81, respectively. The LNCaP FGC adenocarcinoma cell line was originally obtained from a person. LNCaP FGC cells are sensitive to dihydrotestosterone and to estrogens (A+). The DU145 carcinoma was originally isolated from the brain of a person with metastatic carcinoma of the prostate; this cell line is not sensitive to steroid hormones (A−).
# Cells were detached from culture flasks, and 1000 cells/well were transferred to 24 well culture plates. The cells were incubated for 24 hours with 10% calf serum. Cells were subsequently incubated without serum for 48 hours. Cells were then incubated for 22 hours with one of the following treatments:
# Trypan blue exclusion was used to assess viability of the cells after treatment. […] However, treatment with a lytic peptide alone may not be selective in vivo unless specific cell types are separately stimulated, for example by hormones controlling their activity.
# [4] = test system: pituitary basophilic (gonadotropic) cells; assay: rat pituitary gland sections in tissue culture, histology after treatment; format: cell-based; conditions: ten hours after treatment, 37° C.; GnRH 5 ng/mL; hecate 50 μM; GnRH 5 ng/mL 15 minutes, wash, then hecate 50 μM; modified GnRH/hecate 50 μM
# Description: The pituitary gland of an adult female rat was harvested and divided into six sections of approximately equal size. One section was placed in each of six wells containing tissue culture medium at 37° C. A different treatment was applied to each well, as described below. Ten hours after treatment, the tissue from each well was fixed, and the histology of each was examined microscopically.
# [5] = test system: bovine small luteal cells; assay: in vitro lysis of bovine small luteal cells (Trypan Blue exclusion, lactic dehydrogenase release); format: cell-based, cattle; conditions: 22 hr incubation
# Description: We studied in vitro lysis of bovine luteal cells with GnRH-hecate conjugate and with hecate-bLH conjugate (SEQ. ID NO. 12). (The bLH component of the conjugate is a 15-mer fragment of the beta chain of luteinizing hormone, SEQ. ID NO. 11). Small luteal cells were collected from cattle corpora lutea post-slaughter.
# Small luteal cells in culture were incubated with one of the following treatments for 22 hours, and were then examined for viability using Trypan Blue exclusion and release of lactic dehydrogenase.
substance,measurement,setting,value
hecate: amphipathic lytic peptide; synthetic peptide analog of melittin (SEQ. ID NO. 2) (FALALKALKKALKKLKKALKKAL) [reference compound],susceptibility of granulosa cells to killing,[1],much more susceptible to killing by hecate alone than were the small luteal cells
same,ovarian function / histology,[2],normal ovarian function
same,killing of cells (viability),[3],killed by hecate alone
same,histology of pituitary tissue after treatment,[4],appeared normal
same,cell death of small luteal cells,[5]; 1 μM,did not differ significantly from negative control
same,killing of small luteal cells,[5]; 5 μM,approximately 50%
same,killing of small luteal cells,[5]; 10 μM,Significant killing
